# Test results published in US6355799B1, “Substituted benzene compounds, process for their preparation, and herbicidal and defoliant compositions containing them” (ISK Americas Incorporated, priority 1997, dated 2002).
# How the values were obtained:
# Assay type in all cases: in vivo
# [1] = test system: redroot pigweed (Amaranthus retroflexus, AMARE); assay: Pre-emerge test, greenhouse herbicide activity screening; conditions: pre-emerge, phytotoxicity rating 0-100 at 14 days after application
# Method in brief: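 Plants grown in 10 cm pots of sandy loam mix received acetone-dissolved compounds through a moving flat-fan nozzle. Doses ranged from 15 to 1000 g ai/ha. Pre-emerge pots were seeded one day earlier, post-emerge pots 8–21 days earlier. Fourteen days on, each pot was graded 0–100 for damage.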
# [2] = test system: barnyardgrass (Echinochloa crus-galli, ECHCG); assay: as above; conditions: pre-emerge, phytotoxicity rating 0-100 at 14 days after application
# Method in brief: (§1)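 Fourteen days after spraying, crop and weed injury was graded visually from 0, no effect, to 100, every plant dead. Test substances were dissolved in acetone and applied at 15–1000 g ai/ha with a flat-fan nozzle. Application was either pre-emergence, one day after sowing, or post-emergence at the 2–3 leaf stage.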
# [3] = test system: green foxtail (Setaria viridis, SETVI); assay: as above; conditions: pre-emerge, phytotoxicity rating 0-100 at 14 days after application
# Method in brief: as §1
# [4] = test system: ivyleaf morningglory (Ipomoea hederacea, IPOHE); assay: as above; conditions: pre-emerge, phytotoxicity rating 0-100 at 14 days after application
# Method in brief: as §1
# [5] = test system: lambsquarters (Chenopodium album, CHEAL); assay: as above; conditions: pre-emerge, phytotoxicity rating 0-100 at 14 days after application
# Method in brief: as §1
# [6] = test system: large crabgrass (Digitaria sanguinalis, DIGSA); assay: as above; conditions: pre-emerge, phytotoxicity rating 0-100 at 14 days after application
# Method in brief: as §1
# [7] = test system: sicklepod (Cassia obtusifolia, CASOB); assay: as above; conditions: pre-emerge, phytotoxicity rating 0-100 at 14 days after application
# Method in brief: as §1
# [8] = test system: velvetleaf (Abutilon theophrasti, ABUTH); assay: as above; conditions: pre-emerge, phytotoxicity rating 0-100 at 14 days after application
# Method in brief: as §1
# [9] = test system: field corn (Zea mays L., var. Dekalb 535, CORN); assay: Pre-emerge test, crop safety; conditions: crop damage, pre-emerge, phytotoxicity rating 0-100 at 14 days after application
# Method in brief: (§2)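 Compounds in acetone were track-sprayed at 187 l/ha, 15–1000 g ai/ha, onto sandy loam pots. Pre-emerge seeds were sown one day before spraying, with surface watering afterwards. Post-emerge plants were at the 2–3 leaf stage and sprayed with 0.25% v/v non-ionic surfactant. Injury was rated 0–100 at 14 days.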
# [10] = test system: upland rice (Oryza sp., var. Tebonnet, RICE); assay: Pre-emerge test, crop safety; conditions: crop damage, pre-emerge, phytotoxicity rating 0-100 at 14 days after application
# Method in brief: as §2
# [11] = test system: barnyardgrass (Echinochloa crus-galli, ECHCG); assay: Post-emerge test, greenhouse herbicide activity screening; conditions: post-emerge; for Post-emerge Herbicidal Activity ECHCG: phytotoxicity rating 0-100 at 14 days after application; for Post-emerge Herbicidal Activity ECHCG (phytotoxicity rating): 14 days after application, rating scale 0-100
# Method in brief: (§3)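 Each test used a mechanized track sprayer delivering 187 l/ha of acetone solution at 15–1000 g ai/ha. Post-emerge foliage at 2–3 leaves was treated with added 0.25% v/v non-ionic surfactant and bottom-watered only. Injury was assessed on day 14, where 100 means total kill.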
# [12] = test system: green foxtail (Setaria viridis, SETVI); assay: as above; conditions: post-emerge; for Post-emerge Herbicidal Activity SETVI: phytotoxicity rating 0-100 at 14 days after application; for Post-emerge Herbicidal Activity SETVI (phytotoxicity rating): 14 days after application, rating scale 0-100
# Method in brief: as §3
# [13] = test system: ivyleaf morningglory (Ipomoea hederacea, IPOHE); assay: as above; conditions: post-emerge; for Post-emerge Herbicidal Activity IPOHE: phytotoxicity rating 0-100 at 14 days after application; for Post-emerge Herbicidal Activity IPOHE (phytotoxicity rating): 14 days after application, rating scale 0-100
# Method in brief: as §3
# [14] = test system: johnsongrass (Sorghum halepense, SORHA); assay: as above; conditions: post-emerge; for Post-emerge Herbicidal Activity SORHA: phytotoxicity rating 0-100 at 14 days after application; for Post-emerge Herbicidal Activity SORHA (phytotoxicity rating): 14 days after application, rating scale 0-100
# Method in brief: as §3
# [15] = test system: lambsquarters (Chenopodium album, CHEAL); assay: as above; conditions: post-emerge; for Post-emerge Herbicidal Activity CHEAL: phytotoxicity rating 0-100 at 14 days after application; for Post-emerge Herbicidal Activity CHEAL (phytotoxicity rating): 14 days after application, rating scale 0-100
# Method in brief: as §3
# [16] = test system: large crabgrass (Digitaria sanguinalis, DIGSA); assay: as above; conditions: post-emerge; for Post-emerge Herbicidal Activity DIGSA: phytotoxicity rating 0-100 at 14 days after application; for Post-emerge Herbicidal Activity DIGSA (phytotoxicity rating): 14 days after application, rating scale 0-100
# Method in brief: as §3
# [17] = test system: redroot pigweed (Amaranthus retroflexus, AMARE); assay: as above; conditions: post-emerge; for Post-emerge Herbicidal Activity AMARE: phytotoxicity rating 0-100 at 14 days after application; for Post-emerge Herbicidal Activity AMARE (phytotoxicity rating): 14 days after application
# Method in brief: as §3
# [18] = test system: sicklepod (Cassia obtusifolia, CASOB); assay: as above; conditions: post-emerge; for Post-emerge Herbicidal Activity CASOB: phytotoxicity rating 0-100 at 14 days after application; for Post-emerge Herbicidal Activity CASOB (phytotoxicity rating): 14 days after application, rating scale 0-100
# Method in brief: as §3
# [19] = test system: velvetleaf (Abutilon theophrasti, ABUTH); assay: as above; conditions: post-emerge; for Post-emerge Herbicidal Activity ABUTH: phytotoxicity rating 0-100 at 14 days after application; for Post-emerge Herbicidal Activity ABUTH (phytotoxicity rating): 14 days after application, rating scale 0-100
# Method in brief: as §3
# [20] = test system: field corn (Zea mays L., var. Dekalb 535, CORN); assay: Post-emerge test, crop safety; conditions: post-emerge; for Post-emerge Herbicidal Activity CORN: crop damage rating 0-100 at 14 days after application; for Post-emerge Herbicidal Activity CORN (crop damage rating): 14 days after application, rating scale 0-100
# Method in brief: as §1
# [21] = test system: upland rice (Oryza sp., var. Tebonnet, RICE); assay: Post-emerge test, crop safety; conditions: post-emerge; for Post-emerge Herbicidal Activity RICE: crop damage rating 0-100 at 14 days after application; for Post-emerge Herbicidal Activity RICE (crop damage rating): 14 days after application, rating scale 0-100
# Method in brief: as §1
compound,measurement,setting,value
Cc1nn(-c2c(Cl)cc(Cl)cc2NC(=O)c2ccc(F)cc2F)c(=O)n1C(F)F [Compound 6-13],Pre-emerge Herbicidal Activity AMARE,[1]; rate 63 g ai/ha,60
same,Pre-emerge Herbicidal Activity AMARE,[1]; rate 250 g ai/ha,100
same,Pre-emerge Herbicidal Activity ECHCG,[2]; rate 63 g ai/ha,10
same,Pre-emerge Herbicidal Activity ECHCG,[2]; rate 250 g ai/ha,40
same,Pre-emerge Herbicidal Activity SETVI,[3]; rate 63 g ai/ha,80
same,Pre-emerge Herbicidal Activity SETVI,[3]; rate 250 g ai/ha,100
same,Pre-emerge Herbicidal Activity IPOHE,[4]; rate 63 g ai/ha,0
same,Pre-emerge Herbicidal Activity IPOHE,[4]; rate 250 g ai/ha,0
same,Pre-emerge Herbicidal Activity CHEAL,[5]; rate 63 g ai/ha,40
same,Pre-emerge Herbicidal Activity CHEAL,[5]; rate 250 g ai/ha,100
same,Pre-emerge Herbicidal Activity DIGSA,[6]; rate 63 g ai/ha,80
same,Pre-emerge Herbicidal Activity DIGSA,[6]; rate 250 g ai/ha,90
same,Pre-emerge Herbicidal Activity CASOB,[7]; rate 63 g ai/ha,0
same,Pre-emerge Herbicidal Activity CASOB,[7]; rate 250 g ai/ha,0
same,Pre-emerge Herbicidal Activity ABUTH,[8]; rate 63 g ai/ha,10
same,Pre-emerge Herbicidal Activity ABUTH,[8]; rate 250 g ai/ha,40
same,Pre-emerge Herbicidal Activity CORN,[9]; rate 63 g ai/ha,0
same,Pre-emerge Herbicidal Activity CORN,[9]; rate 250 g ai/ha,0
same,Pre-emerge Herbicidal Activity RICE,[10]; rate 63 g ai/ha,0
same,Pre-emerge Herbicidal Activity RICE,[10]; rate 250 g ai/ha,10
same,Post-emerge Herbicidal Activity ECHCG,[11]; 63 g ai/ha,0
same,Post-emerge Herbicidal Activity ECHCG,[11]; 250 g ai/ha,30
same,Post-emerge Herbicidal Activity SETVI,[12]; 63 g ai/ha,50
same,Post-emerge Herbicidal Activity SETVI,[12]; 250 g ai/ha,90
same,Post-emerge Herbicidal Activity IPOHE,[13]; 63 g ai/ha,50
same,Post-emerge Herbicidal Activity IPOHE,[13]; 250 g ai/ha,60
same,Post-emerge Herbicidal Activity SORHA,[14]; 63 g ai/ha,0
same,Post-emerge Herbicidal Activity SORHA,[14]; 250 g ai/ha,10
same,Post-emerge Herbicidal Activity CHEAL,[15]; 63 g ai/ha,85
same,Post-emerge Herbicidal Activity CHEAL,[15]; 250 g ai/ha,90
same,Post-emerge Herbicidal Activity DIGSA,[16]; 63 g ai/ha,20
same,Post-emerge Herbicidal Activity DIGSA,[16]; 250 g ai/ha,30
same,Post-emerge Herbicidal Activity AMARE,[17]; 63 g ai/ha,70
same,Post-emerge Herbicidal Activity AMARE,[17]; 250 g ai/ha,90
same,Post-emerge Herbicidal Activity CASOB,[18]; 63 g ai/ha,0
same,Post-emerge Herbicidal Activity CASOB,[18]; 250 g ai/ha,30
same,Post-emerge Herbicidal Activity ABUTH,[19]; 63 g ai/ha,100
same,Post-emerge Herbicidal Activity ABUTH,[19]; 250 g ai/ha,90
same,Post-emerge Herbicidal Activity CORN,[20]; 63 g ai/ha,15
same,Post-emerge Herbicidal Activity CORN,[20]; 250 g ai/ha,20
same,Post-emerge Herbicidal Activity RICE,[21]; 63 g ai/ha,10
same,Post-emerge Herbicidal Activity RICE,[21]; 250 g ai/ha,30
Cn1c(C(F)(F)F)cc(=O)n(-c2c(O)cc(Cl)cc2Cl)c1=O [16-1],Post-emerge Herbicidal Activity ECHCG (phytotoxicity rating),[11]; 63 g ai/ha,0
same,Post-emerge Herbicidal Activity ECHCG (phytotoxicity rating),[11]; 250 g ai/ha,0
same,Post-emerge Herbicidal Activity SETVI (phytotoxicity rating),[12]; 63 g ai/ha,0
same,Post-emerge Herbicidal Activity SETVI (phytotoxicity rating),[12]; 250 g ai/ha,0
same,Post-emerge Herbicidal Activity IPOHE (phytotoxicity rating),[13]; 63 g ai/ha,30
same,Post-emerge Herbicidal Activity IPOHE (phytotoxicity rating),[13]; 250 g ai/ha,70
same,Post-emerge Herbicidal Activity SORHA (phytotoxicity rating),[14]; 63 g ai/ha,20
same,Post-emerge Herbicidal Activity SORHA (phytotoxicity rating),[14]; 250 g ai/ha,40
same,Post-emerge Herbicidal Activity CHEAL (phytotoxicity rating),[15]; 63 g ai/ha,0
same,Post-emerge Herbicidal Activity CHEAL (phytotoxicity rating),[15]; 250 g ai/ha,70
same,Post-emerge Herbicidal Activity DIGSA (phytotoxicity rating),[16]; 63 g ai/ha,20
same,Post-emerge Herbicidal Activity DIGSA (phytotoxicity rating),[16]; 250 g ai/ha,80
same,Post-emerge Herbicidal Activity AMARE (phytotoxicity rating),"[17]; 63 g ai/ha, rating scale 0-100 (0 no damage, 100 complete death)",70
same,Post-emerge Herbicidal Activity AMARE (phytotoxicity rating),"[17]; 250 g ai/ha, rating scale 0-100",70
same,Post-emerge Herbicidal Activity CASOB (phytotoxicity rating),[18]; 63 g ai/ha,0
same,Post-emerge Herbicidal Activity CASOB (phytotoxicity rating),[18]; 250 g ai/ha,0
same,Post-emerge Herbicidal Activity ABUTH (phytotoxicity rating),[19]; 63 g ai/ha,70
same,Post-emerge Herbicidal Activity ABUTH (phytotoxicity rating),[19]; 250 g ai/ha,100
same,Post-emerge Herbicidal Activity CORN (crop damage rating),[20]; 63 g ai/ha,0
same,Post-emerge Herbicidal Activity CORN (crop damage rating),[20]; 250 g ai/ha,0
same,Post-emerge Herbicidal Activity RICE (crop damage rating),[21]; 63 g ai/ha,0
same,Post-emerge Herbicidal Activity RICE (crop damage rating),[21]; 250 g ai/ha,10
